Laboratory results: US11548870B2, “Compounds useful as inhibitors of helios protein” (Bristol-Myers Squibb Company, priority 2019, dated 2023)
Values joined by “and” are separate entries in the source; they are usually repeats but may differ in a detail not shown here. Equal values may be shown once. Read-outs that look alike come from different tables or passages of the source.

Key:
Helios = molecular target: T1, Helios (Homo sapiens, UniProt Q96SW2+Q9UKS7); assay: Helios Cellular Degradation Assay (flow cytometry, Helios-PE antibody staining, 72 h); assay type: cell-based; conditions: for Dmax: Jurkat, read-out: Helios Dmax
T1 construct: fluorescently labelled antibodies against Helios and Ikaros; endogenous in cells; host or cells: Jurkat cells
How it was run: (§1)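 Flow cytometry of fixed, permeabilized Jurkat cells stained with anti-Helios-PE and anti-Ikaros-Alexa488 (1 h, room temperature) measured remaining protein. Treatment lasted 72 h at 37 °C, 5% CO2, at 80,000 cells/well in RPMI with 10% FBS.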

Ikaros = molecular target: T2, Ikaros (Homo sapiens, UniProt Q13422); assay: Helios Cellular Degradation Assay, Ikaros readout (flow cytometry, Ikaros-Alexa488 antibody staining, 72 h); assay type: cell-based; conditions: for Dmax: Jurkat, read-out: Ikaros Dmax
T2 construct: fluorescently labelled antibodies against Helios and Ikaros; endogenous in cells; host or cells: Jurkat cells
How it was run: as §1

[1] = Jurkat cells, 72 h incubation, flow cytometry

T2 sequence (Q96SW2 whole entry partner): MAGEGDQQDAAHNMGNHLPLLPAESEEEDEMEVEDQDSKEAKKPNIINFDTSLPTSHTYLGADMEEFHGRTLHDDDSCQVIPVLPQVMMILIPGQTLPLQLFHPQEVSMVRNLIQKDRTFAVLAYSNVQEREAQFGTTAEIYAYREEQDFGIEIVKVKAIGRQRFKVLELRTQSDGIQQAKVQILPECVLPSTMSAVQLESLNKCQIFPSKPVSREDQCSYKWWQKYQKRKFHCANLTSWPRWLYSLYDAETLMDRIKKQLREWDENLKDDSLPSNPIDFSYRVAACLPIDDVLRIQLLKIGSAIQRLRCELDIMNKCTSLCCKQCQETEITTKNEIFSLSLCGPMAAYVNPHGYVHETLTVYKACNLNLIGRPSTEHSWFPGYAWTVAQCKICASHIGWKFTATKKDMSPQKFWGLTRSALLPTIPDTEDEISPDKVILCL
T2 sequence (Q16531 whole entry partner): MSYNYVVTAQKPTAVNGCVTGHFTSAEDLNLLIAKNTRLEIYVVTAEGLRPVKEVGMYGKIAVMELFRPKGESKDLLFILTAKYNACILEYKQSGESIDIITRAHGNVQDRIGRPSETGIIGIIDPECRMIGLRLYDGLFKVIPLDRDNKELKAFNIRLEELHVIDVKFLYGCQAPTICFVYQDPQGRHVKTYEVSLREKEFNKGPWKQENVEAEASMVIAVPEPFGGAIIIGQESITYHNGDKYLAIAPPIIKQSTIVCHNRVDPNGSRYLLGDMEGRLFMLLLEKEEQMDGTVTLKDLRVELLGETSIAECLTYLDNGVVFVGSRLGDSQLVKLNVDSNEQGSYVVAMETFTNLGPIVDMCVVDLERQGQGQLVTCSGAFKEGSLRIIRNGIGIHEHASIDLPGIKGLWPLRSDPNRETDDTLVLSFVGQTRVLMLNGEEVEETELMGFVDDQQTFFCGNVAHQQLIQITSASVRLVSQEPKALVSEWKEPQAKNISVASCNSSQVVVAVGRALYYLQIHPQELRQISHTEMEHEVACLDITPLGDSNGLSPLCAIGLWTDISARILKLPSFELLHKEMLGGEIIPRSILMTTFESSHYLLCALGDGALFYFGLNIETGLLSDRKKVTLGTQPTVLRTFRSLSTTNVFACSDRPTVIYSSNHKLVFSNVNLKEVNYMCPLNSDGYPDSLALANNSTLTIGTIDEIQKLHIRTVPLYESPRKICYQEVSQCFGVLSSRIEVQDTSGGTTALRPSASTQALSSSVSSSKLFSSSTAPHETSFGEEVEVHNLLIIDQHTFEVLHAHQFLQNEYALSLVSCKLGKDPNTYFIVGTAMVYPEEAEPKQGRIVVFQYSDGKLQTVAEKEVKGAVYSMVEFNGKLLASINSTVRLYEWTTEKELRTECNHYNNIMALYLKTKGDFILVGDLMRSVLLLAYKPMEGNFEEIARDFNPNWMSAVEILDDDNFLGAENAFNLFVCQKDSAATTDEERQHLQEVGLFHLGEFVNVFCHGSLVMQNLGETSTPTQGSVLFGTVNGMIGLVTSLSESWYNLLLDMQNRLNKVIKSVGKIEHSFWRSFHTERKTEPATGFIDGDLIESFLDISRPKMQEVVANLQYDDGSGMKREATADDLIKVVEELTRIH
T2 sequence (Q13422 whole entry): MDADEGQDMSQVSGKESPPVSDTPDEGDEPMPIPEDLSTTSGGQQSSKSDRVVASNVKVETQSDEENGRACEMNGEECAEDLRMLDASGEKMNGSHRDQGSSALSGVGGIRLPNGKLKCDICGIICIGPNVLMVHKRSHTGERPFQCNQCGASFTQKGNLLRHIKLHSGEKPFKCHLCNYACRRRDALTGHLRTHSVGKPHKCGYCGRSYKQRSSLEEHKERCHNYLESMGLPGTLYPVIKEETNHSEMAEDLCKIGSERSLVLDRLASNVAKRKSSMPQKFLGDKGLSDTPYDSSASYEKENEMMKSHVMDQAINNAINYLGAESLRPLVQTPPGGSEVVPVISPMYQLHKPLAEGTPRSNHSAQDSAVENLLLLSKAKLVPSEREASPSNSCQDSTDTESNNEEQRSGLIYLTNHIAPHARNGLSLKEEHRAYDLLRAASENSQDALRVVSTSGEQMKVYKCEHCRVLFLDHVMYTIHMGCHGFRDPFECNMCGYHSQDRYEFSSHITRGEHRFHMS
T1 sequence (Q9UKS7 whole entry): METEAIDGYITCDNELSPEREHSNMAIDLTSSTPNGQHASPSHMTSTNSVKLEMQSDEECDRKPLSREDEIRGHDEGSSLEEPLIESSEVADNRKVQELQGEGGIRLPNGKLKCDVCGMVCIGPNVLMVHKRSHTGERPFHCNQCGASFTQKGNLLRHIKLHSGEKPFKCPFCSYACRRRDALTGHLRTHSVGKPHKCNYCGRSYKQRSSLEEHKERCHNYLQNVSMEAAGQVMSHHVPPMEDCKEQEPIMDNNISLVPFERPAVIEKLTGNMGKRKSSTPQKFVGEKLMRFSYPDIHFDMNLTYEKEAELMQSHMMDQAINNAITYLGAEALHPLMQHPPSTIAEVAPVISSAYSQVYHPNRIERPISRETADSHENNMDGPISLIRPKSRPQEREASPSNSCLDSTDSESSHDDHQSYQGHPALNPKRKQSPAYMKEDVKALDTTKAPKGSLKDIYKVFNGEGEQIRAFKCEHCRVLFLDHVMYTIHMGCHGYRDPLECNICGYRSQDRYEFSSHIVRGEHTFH
T1 sequence (Q96SW2 whole entry): as the sequence (Q96SW2 whole entry partner) above
T1 sequence (Q16531 whole entry partner): as the sequence (Q16531 whole entry partner) above

Structure (SMILES)	DC50 (Helios; [1]) [nM]	Helios Dmax (Helios; [1]) [%]	DC50 (Ikaros; [1]) [nM]	Ikaros Dmax (Ikaros; [1])	Dmax (Helios; [1]) [%]	Dmax (Ikaros; [1]) [%]	Dmax (Helios) [%]	Dmax (Ikaros) [%]
O=C1CCC(N2Cc3cc(-c4cc(CN5CCN(Cc6ccccc6)CC5)ccn4)ccc3C2=O)C(=O)N1 (stereo not shown) [Example 36]	> 10000	11	> 10000	14%				
COc1ccc(CN(C)Cc2ccnc(-c3ccc4c(c3)CN(C3CCC(=O)NC3=O)C4=O)c2)cn1 (stereo not shown) [Example 168, 3-{5-[4-({[(6-Methoxypyridin-3-yl)methyl](methyl)amino}methyl)pyridin-2-yl]-1-oxo-2,3-dihydro-1H-isoindol-2-yl}piperidine-2,6-dione]	309		> 10000		77	20		
CC1CCCN1Cc1ccnc(-c2ccc3c(c2)CN(C2CCC(=O)NC2=O)C3=O)c1 (stereo not shown) [Example 20, 3-(5-(4-((2-methylpyrrolidin-1-yl)methyl)pyridin-2-yl)-1-oxoisoindolin-2-yl)piperidine-2,6-dione]	60		> 10000		80	11		
CN(Cc1ccnc(-c2ccc3c(c2)CN(C2CCC(=O)NC2=O)C3=O)c1)Cc1nccs1 (stereo not shown) [Example 176, 3-(5-(4-((methyl(thiazol-2-ylmethyl)amino)methyl)pyridin-2-yl)-1-oxoisoindolin-2-yl)piperidine-2,6-dione]	1120		> 10000		65	30		
CN(Cc1ccnc(-c2ccc3c(c2)CN(C2CCC(=O)NC2=O)C3=O)c1)Cc1cccc2[nH]ncc12 (stereo not shown) [Example 169, 3-(5-(4-((((1H-indazol-4-yl)methyl)(methyl)amino)methyl)pyridin-2-yl)-1-oxoisoindolin-2-yl)piperidine-2,6-dione]	195		> 10000		79	16		
O=C1CCC(N2Cc3cc(-c4cc(CN5CCC5c5ccccc5)ccn4)ccc3C2=O)C(=O)N1 (single isomer, unassigned) [Example 205, 3-(1-oxo-5-(4-((2-phenylazetidin-1-yl)methyl)pyridin-2-yl)isoindolin-2-yl)piperidine-2,6-dione]	> 10000		> 10000	8.15% and 6%				
O=C1CCC(N2Cc3cc(-c4nccc(CN5CC(c6cccnc6)C5)c4F)ccc3C2=O)C(=O)N1 (stereo not shown) [Example 192, 3-(5-(3-fluoro-4-((3-(pyridin-3-yl)azetidin-1-yl)methyl)pyridin-2-yl)-1-oxoisoindolin-2-yl)piperidine-2,6-dione]	> 10000		> 10000		41	16		
CN(Cc1cccc(C(F)(F)F)c1)Cc1ccnc(-c2ccc3c(c2)CN(C2CCC(=O)NC2=O)C3=O)c1 (stereo not shown) [Example 148, 3-(5-(4-((methyl(3-(trifluoromethyl)benzyl)amino)methyl)pyridin-2-yl)-1-oxoisoindolin-2-yl)piperidine-2,6-dione]	238		> 10000				75	9
CC1(C)CCN1Cc1ccnc(-c2ccc3c(c2)CN(C2CCC(=O)NC2=O)C3=O)c1 (stereo not shown) [Example 52, 3-(5-(4-((2,2-dimethylazetidin-1-yl)methyl)pyridin-2-yl)-1-oxoisoindolin-2-yl)piperidine-2,6-dione]	300		> 10000		67	10		
CN[C@@H]1CCCC[C@H]1N(C)Cc1ccnc(-c2ccc3c(c2)CN(C2CCC(=O)NC2=O)C3=O)c1 (stereo partly drawn) [Example 140, 3-(5-(4-((methyl((1R,2R)-2-(methylamino)cyclohexyl)amino)methyl)pyridin-2-yl)-1-oxoisoindolin-2-yl)piperidine-2,6-dione]	12		> 10000		76	22		
Cc1ccc(CNCc2ccnc(-c3ccc4c(c3)CN(C3CCC(=O)NC3=O)C4=O)c2)cc1 (stereo not shown) [Example 58, 3-(5-(4-(((4-methylbenzyl)amino)methyl)pyridin-2-yl)-1-oxoisoindolin-2-yl)piperidine-2,6-dione]	9		> 10000		88	22		
O=C1CCC(N2Cc3cc(-c4cc(CNCc5ccccc5)ccn4)ccc3C2=O)C(=O)N1 (stereo not shown) [Example 2, 3-(5-(4-((benzylamino)methyl)pyridin-2-yl)-1-oxoisoindolin-2-yl)piperidine-2,6-dione]	11		> 10000		92	16		
CN(Cc1ccc(Cl)cc1)Cc1ccnc(-c2ccc3c(c2)CN(C2CCC(=O)NC2=O)C3=O)c1 (stereo not shown) [Example 154, 3-(5-(4-(((4-chlorobenzyl)(methyl)amino)methyl)pyridin-2-yl)-1-oxoisoindolin-2-yl)piperidine-2,6-dione]	3260		> 10000		54	6		
COc1cccc(CN(C)Cc2ccnc(-c3ccc4c(c3)CN(C3CCC(=O)NC3=O)C4=O)c2)c1 (stereo not shown) [Example 158, 3-(5-(4-(((3-methoxybenzyl)(methyl)amino)methyl)pyridin-2-yl)-1-oxoisoindolin-2-yl)piperidine-2,6-dione]	256		> 10000		74	3		
O=C1CCC(N2Cc3cc(-c4cc(CN5CC[C@H](c6ccccc6)C5)ccn4)ccc3C2=O)C(=O)N1 (stereo partly drawn) [Example 138, 3-(1-oxo-5-(4-(((R)-3-phenylpyrrolidin-1-yl)methyl)pyridin-2-yl)isoindolin-2-yl)piperidine-2,6-dione]	37		> 10000		82	18		
CCCCNCc1ccnc(-c2ccc3c(c2)CN(C2CCC(=O)NC2=O)C3=O)c1 (stereo not shown) [Example 61, 3-(5-(4-((butylamino)methyl)pyridin-2-yl)-1-oxoisoindolin-2-yl)piperidine-2,6-dione]	12		> 10000		83	5		
O=C1CCC(N2Cc3cc(-c4cc(CN5CCC5)ccn4)ccc3C2=O)C(=O)N1 (stereo not shown) [Example 165, 3-(5-{4-[(Azetidin-1-yl)methyl]pyridin-2-yl}-1-oxo-2,3-dihydro-1H-isoindol-2-yl) piperidine-2,6-dione]	56		> 10000		95	14		
CC1CC(NCc2ccnc(-c3ccc4c(c3)CN(C3CCC(=O)NC3=O)C4=O)c2)CCO1 (stereo not shown) [Example 126, 3-(5-(4-(((2-methyltetrahydro-2H-pyran-4-yl)amino)methyl)pyridin-2-yl)-1-oxoisoindolin-2-yl) piperidine-2,6-dione]	82		> 10000		99	22		
O=C1CCC(N2Cc3cc(-c4cc(CN5CCC6(CC5)CC6)ccn4)ccc3C2=O)C(=O)N1 (stereo not shown) [Example 127, 3-(5-(4-((6-azaspiro[2.5]octan-6-yl)methyl)pyridin-2-yl)-1-oxoisoindolin-2-yl)piperidine-2,6-dione]	35		> 10000		84	6		
O=C1CCC(N2Cc3cc(-c4cc(CNCCc5ccc(O)cc5)ccn4)ccc3C2=O)C(=O)N1 (stereo not shown) [Example 96, 3-(5-(4-(((4-hydroxyphenethyl)amino)methyl)pyridin-2-yl)-1-oxoisoindolin-2-yl) piperidine-2,6-dione]	19		> 10000		94	25		
